Drawing on the supplement of paper PMC11061612, this text covers Bliss excess for three compounds.

Common to all, as to experiment: Bliss excess, mean over the matrix (fraction); higher = more synergy
One assay concerns 786-0 (Kidney Carcinoma). The essentials:
(§1)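 Cell lines grown in DMEM/F12 or RPMI with 10% FBS were plated in 1536-well plates and held 24 hours at 37°C, 5% CO2 before 72 hours of exposure to two-drug dose matrices, with DMSO typically at 0.2%. CellTiter-Glo 2.0 luminescence gave viability, which was converted to inhibition. Vehicle wells were set to 0 and blank wells to 1. Combination Emax is the second-highest inhibition in the matrix, and Bliss excess is the observed combination effect minus the expected EA + EB − EA·EB, where EA and EB are the single-agent effects.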

Assay [1] concerns BALL-1 (B-Lymphoblastic Leukemia). The essentials:
as §1

Assay [2] deals with Becker (Low Grade Glioma). The method, boiled down: as §1
The test system of a further assay is CHL-1 (Melanoma). The essentials:
as §1

Assay [3] deals with CML-T1 (Chronic Myelogenous Leukemia). The essentials:
as §1

For assay [4], the system named is COLO-684 (Endometrial Carcinoma). The essentials: as §1
For assay [5], the system named is Calu-6 (Non-Small Cell Lung Carcinoma). The method, boiled down:
as §1

In a further assay the test system is ES-2 (Ovarian Carcinoma). The method, boiled down:
as §1

Assay [6] has as its system FLO-1 (Esophageal Adenocarcinoma). The essentials:
as §1

Assay [7] has as its system HTC-C3 (Thyroid Gland Carcinoma). The method, boiled down: as §1
In assay [8] the test system is LAMA-84 (Chronic Myelogenous Leukemia). The essentials: as §1
The test system of assay [9] is LOUCY (T-Lymphoblastic Leukemia). The method, boiled down: as §1
Assay [10] deals with NCI-H1563 (Lung Adenocarcinoma). The essentials:
as §1

Assay [11] deals with NCI-H1623 (Lung Adenocarcinoma). The method, boiled down:
as §1

The test system of assay [12] is NCI-H196 (Small Cell Lung Carcinoma). The essentials: as §1
Assay [13] concerns NCI-H810 (Non-Small Cell Lung Carcinoma). The method, boiled down:
as §1

Assay [14] concerns PC-14 (Lung Adenocarcinoma). The essentials:
as §1

For assay [15], the system named is RERF-LC-KJ (Lung Adenocarcinoma). The method, boiled down:
as §1

Assay [16] relates to RL95-2 (Endometrial Carcinoma). The method, boiled down:
as §1

The test system of assay [17] is SW684 (Other Solid Carcinomas). The essentials:
as §1

Regarding `Cn1cnc2c(F)c(Nc3ccc(Br)cc3Cl)c(C(=O)NOCCO)cc21` [Selumetinib] + C[C@@H]1COCCN1C2=NC(=NC(=C2)C3(CC3)[S@](=N)(=O)C)C4=C5C=CNC5=NC=C4 [AZD6738] (first compound max 10 µM, 7x7, partner max 10 µM), the Bliss excess in the assay with 786-0 (Kidney Carcinoma) is -0.0735; in assay [1], -0.0066; in assay [2], 0.0016; with CHL-1 (Melanoma), -0.0498; in [3], -0.0631; in assay [4], -0.0474. Further, the Bliss excess is -0.032 in assay [5]; 0.0006 with ES-2 (Ovarian Carcinoma); -0.0137 in assay [6]; -0.0072 in assay [7]; 0.0012 in [8]; -0.0446 in assay [9]. For the same compound, the Bliss excess is -0.0297 in [10]; 0.0028 in [11]; -0.0607 in assay [12]; -0.0707 in assay [13]; -0.0022 in [14]; 0.0075 in [15]. Further, the Bliss excess is 0.0152 in assay [16] and -0.071 in assay [17].

As to `CCN(CCO)CCCOc1ccc2c(Nc3cc(CC(=O)Nc4cccc(F)c4)[nH]n3)ncnc2c1` [AZD2811] + C=CCn1c(=O)c2cnc(Nc3ccc(N4CCN(C)CC4)cc3)nc2n1-c1cccc(C(C)(C)O)n1 [AZD1775] (first compound max 1 µM, partner max 1 µM), the Bliss excess in the assay on 786-0 (Kidney Carcinoma) was -0.0246; in assay [1], 0.0612; in assay [2], -0.0465; in the assay on CHL-1 (Melanoma), 0.0161; in [3], 0.0392; in [4], -0.0443. Moreover, the Bliss excess in assay [5] was -0.0028; in the assay on ES-2 (Ovarian Carcinoma) it was -0.0111; in [6], -0.0162; in assay [7], -0.0174; in assay [8], 0.0026; in assay [9], -0.019. Also, the Bliss excess in assay [10] was 0.001; in assay [11], 0.009; in [12] it was -0.0371; in assay [13] it was -0.0022; in assay [14], -0.0026; in assay [15] it was 0.0515. The Bliss excess was 0.0389 in assay [16] and -0.0454 in [17].

On to `CN(CCO)CC[C@H](CSc1ccccc1)Nc1ccc(S(=O)(=O)NC(=O)c2ccc(N3CCC([C@@H](O)c4ccccc4-c4ccc(Cl)cc4)CC3)cc2)cc1S(=O)(=O)C(F)(F)F` [AZD4320] + CCN(CCO)CCCOc1ccc2c(Nc3cc(CC(=O)Nc4cccc(F)c4)[nH]n3)ncnc2c1 [AZD2811] (first compound max 1 µM, 7x7, partner max 1 µM), for which the Bliss excess in the assay with 786-0 (Kidney Carcinoma) was -0.0374; in assay [1], 0.14; in assay [2] it was -0.027; in the assay on CHL-1 (Melanoma) it was 0.133; in assay [3], 0.0624; in assay [4] it was -0.0217. Moreover, the Bliss excess is -0.0023 in [5]; -0.0208 in the assay on ES-2 (Ovarian Carcinoma); 0.0895 in [6]; -0.0348 in assay [7]; 0.0319 in assay [8]; -0.0011 in [9]. In addition, the Bliss excess was -0.0002 in assay [10]; -0.0045 in [11]; -0.0513 in assay [12]; 0.0178 in assay [13]; 0.0099 in assay [14]; -0.028 in [15]. Moreover, the Bliss excess in assay [16] is 0.119; in assay [17] it was -0.0717.
